Common to all, as to type: ADME
The nature of data set [1]: The drug is tested on the gut metagenome community of P-04 with ENA study accession number: PRJEB31790 for biotransformation under microaerobic condition. The drug concentrations were measured over 7 timepoints collected between 0 and 12 hours of incubation by liquid-chromatography-coupled mass spectrometry (LC–MS). Also on record: dose 5 uM, timepoint 0, 0.75, 1.5, 3, 6, 9, 12 hours. The note with it: 5 µM.

A short description of data set [2]: The drug is tested on Gemella haemolysans strain: DSM107751 for biotransformation under microaerobic condition. The drug concentrations were measured over 6 timepoints collected between 0 and 12 hours of incubation by liquid-chromatography-coupled mass spectrometry (LC–MS). The note with it: 5 µM. Also on record: dose 5 uM, timepoint 0, 1.5, 3, 6, 9, 12 hours.

Data set [3] can be described thus: The drug is tested on Streptococcus mitis strain: DSM12643 for biotransformation under microaerobic condition. The drug concentrations were measured over 6 timepoints collected between 0 and 12 hours of incubation by liquid-chromatography-coupled mass spectrometry (LC–MS). Also on record: dose 5 uM, timepoint 0, 1.5, 3, 6, 9, 12 hours. The note with it: 5 µM.
Data set [4] can be described thus: The drug is tested on the gut metagenome community of A-03 with ENA study accession number: PRJEB31790 for biotransformation under microaerobic condition. The drug concentrations were measured over 7 timepoints collected between 0 and 12 hours of incubation by liquid-chromatography-coupled mass spectrometry (LC–MS). Also on record: dose 5 uM, timepoint 0, 0.75, 1.5, 3, 6, 9, 12 hours. The note with it: 5 µM.

A short description of data set [5]: The drug is tested on Bacteroides caccae strain: DSM19024 for biotransformation under anaerobic condition. The drug concentrations were measured over 6 timepoints collected between 0 and 12 hours of incubation by liquid-chromatography-coupled mass spectrometry (LC–MS). The note with it: 5 µM. Also on record: dose 5 uM, timepoint 0, 1.5, 3, 6, 9, 12 hours.
Data set [6] can be described thus: The drug is tested on the gut metagenome community of A-02 with ENA study accession number: PRJEB31790 for biotransformation under anaerobic condition. The drug concentrations were measured over 7 timepoints collected between 0 and 12 hours of incubation by liquid-chromatography-coupled mass spectrometry (LC–MS). Also on record: dose 5 uM, timepoint 0, 0.75, 1.5, 3, 6, 9, 12 hours. The following applies: 5 µM.

A short description of data set [7]: The drug is tested on Ruminococcus gnavus strain: ATCC29149 for biotransformation under anaerobic condition. The drug concentrations were measured over 6 timepoints collected between 0 and 12 hours of incubation by liquid-chromatography-coupled mass spectrometry (LC–MS). Also on record: dose 5 uM, timepoint 0, 1.5, 3, 6, 9, 12 hours. The note with it: mediterraneibacter gnavus, 5 µM.

Data set [8] can be described thus: The drug is tested on Bacteroides stercoris strain: HM 1036 for biotransformation under anaerobic condition. The drug concentrations were measured over 6 timepoints collected between 0 and 12 hours of incubation by liquid-chromatography-coupled mass spectrometry (LC–MS). Also on record: dose 5 uM, timepoint 0, 1.5, 3, 6, 9, 12 hours. The following applies: 5 µM.

Data set [9] can be described thus: The drug is tested on Clostridium ramosum strain: DSM1402 for biotransformation under anaerobic condition. The drug concentrations were measured over 6 timepoints collected between 0 and 12 hours of incubation by liquid-chromatography-coupled mass spectrometry (LC–MS). The note with it: thomasclavelia ramosa, 5 µM. Also on record: dose 5 uM, timepoint 0, 1.5, 3, 6, 9, 12 hours.

The nature of data set [10]: The drug is tested on the gut metagenome community of A-03 with ENA study accession number: PRJEB31790 for biotransformation under anaerobic condition. The drug concentrations were measured over 7 timepoints collected between 0 and 12 hours of incubation by liquid-chromatography-coupled mass spectrometry (LC–MS). Also on record: dose 5 uM, timepoint 0, 0.75, 1.5, 3, 6, 9, 12 hours. The note with it: 5 µM.

Data set [11] is described as follows: The drug is tested on the gut metagenome community of T-04 with ENA study accession number: PRJEB31790 for biotransformation under microaerobic condition. The drug concentrations were measured over 7 timepoints collected between 0 and 12 hours of incubation by liquid-chromatography-coupled mass spectrometry (LC–MS). The following applies: 5 µM. Also on record: dose 5 uM, timepoint 0, 0.75, 1.5, 3, 6, 9, 12 hours.

Data set [12] is described as follows: The drug is tested on the gut metagenome community of A-04 with ENA study accession number: PRJEB31790 for biotransformation under microaerobic condition. The drug concentrations were measured over 7 timepoints collected between 0 and 12 hours of incubation by liquid-chromatography-coupled mass spectrometry (LC–MS). Also on record: dose 5 uM, timepoint 0, 0.75, 1.5, 3, 6, 9, 12 hours. The following applies: 5 µM.

Data set [13] is described as follows: The drug is tested on Bacteroides fragilis strain: DSM2151 for biotransformation under anaerobic condition. The drug concentrations were measured over 6 timepoints collected between 0 and 12 hours of incubation by liquid-chromatography-coupled mass spectrometry (LC–MS). Also on record: dose 5 uM, timepoint 0, 1.5, 3, 6, 9, 12 hours. The following applies: 5 µM.

Data set [14] in a line: The drug is tested on the gut metagenome community of T-01 with ENA study accession number: PRJEB31790 for biotransformation under anaerobic condition. The drug concentrations were measured over 7 timepoints collected between 0 and 12 hours of incubation by liquid-chromatography-coupled mass spectrometry (LC–MS). Also on record: dose 5 uM, timepoint 0, 0.75, 1.5, 3, 6, 9, 12 hours. The note with it: 5 µM.

Data set [15] can be described thus: The drug is tested on Lactobacillus ruminis strain: ATCC25644 for biotransformation under anaerobic condition. The drug concentrations were measured over 6 timepoints collected between 0 and 12 hours of incubation by liquid-chromatography-coupled mass spectrometry (LC–MS). Also on record: dose 5 uM, timepoint 0, 1.5, 3, 6, 9, 12 hours. The following applies: ligilactobacillus ruminis, 5 µM.

A short description of data set [16]: The drug is tested on Coprococcus comes strain: ATCC27758 for biotransformation under anaerobic condition. The drug concentrations were measured over 6 timepoints collected between 0 and 12 hours of incubation by liquid-chromatography-coupled mass spectrometry (LC–MS). The note with it: 5 µM. Also on record: dose 5 uM, timepoint 0, 1.5, 3, 6, 9, 12 hours.
Data set [17] can be described thus: The drug is tested on Streptococcus salivarius strain: DSM20560 for biotransformation under anaerobic condition. The drug concentrations were measured over 6 timepoints collected between 0 and 12 hours of incubation by liquid-chromatography-coupled mass spectrometry (LC–MS). Also on record: dose 5 uM, timepoint 0, 1.5, 3, 6, 9, 12 hours. The note with it: 5 µM.

Data set [18] can be described thus: The drug is tested on Lactobacillus gasseri strain: DSM20243 for biotransformation under microaerobic condition. The drug concentrations were measured over 6 timepoints collected between 0 and 12 hours of incubation by liquid-chromatography-coupled mass spectrometry (LC–MS). Also on record: dose 5 uM, timepoint 0, 1.5, 3, 6, 9, 12 hours. The following applies: 5 µM.

A short description of data set [19]: The drug is tested on Clostridium bolteae strain: DSM15670 for biotransformation under anaerobic condition. The drug concentrations were measured over 6 timepoints collected between 0 and 12 hours of incubation by liquid-chromatography-coupled mass spectrometry (LC–MS). Also on record: dose 5 uM, timepoint 0, 1.5, 3, 6, 9, 12 hours. The following applies: enterocloster bolteae, 5 µM.

The nature of data set [20]: The drug is tested on the gut metagenome community of P-01 with ENA study accession number: PRJEB31790 for biotransformation under anaerobic condition. The drug concentrations were measured over 7 timepoints collected between 0 and 12 hours of incubation by liquid-chromatography-coupled mass spectrometry (LC–MS). Also on record: dose 5 uM, timepoint 0, 0.75, 1.5, 3, 6, 9, 12 hours. The note with it: 5 µM.

Data set [21] is described as follows: The drug is tested on Lactobacillus paracasei strain: ATCC27092 for biotransformation under anaerobic condition. The drug concentrations were measured over 6 timepoints collected between 0 and 12 hours of incubation by liquid-chromatography-coupled mass spectrometry (LC–MS). Also on record: dose 5 uM, timepoint 0, 1.5, 3, 6, 9, 12 hours. The note with it: lacticaseibacillus paracasei, 5 µM.

The nature of data set [22]: The drug is tested on Streptococcus salivarius strain: DSM20560 for biotransformation under microaerobic condition. The drug concentrations were measured over 6 timepoints collected between 0 and 12 hours of incubation by liquid-chromatography-coupled mass spectrometry (LC–MS). Also on record: dose 5 uM, timepoint 0, 1.5, 3, 6, 9, 12 hours. The following applies: 5 µM.

The nature of data set [23]: The drug is tested on Bacteroides uniformis strain: DSM6597 for biotransformation under anaerobic condition. The drug concentrations were measured over 6 timepoints collected between 0 and 12 hours of incubation by liquid-chromatography-coupled mass spectrometry (LC–MS). Also on record: dose 5 uM, timepoint 0, 1.5, 3, 6, 9, 12 hours. The following applies: 5 µM.

For the compound `C[C@]12CCC(=O)C=C1CC[C@@H]1[C@@H]2[C@@H](O)C[C@@]2(C)[C@H]1CC[C@]2(O)C(=O)CO` [HYDROCORTISONE], the “Bacterial Biotransformation” value in data set [1] is given as “Compound metabolized”; in [2], “Compound NOT metabolized”; in data set [3] it was “Compound NOT metabolized”; in [4] it was “Compound metabolized”; in [5] it was “Compound NOT metabolized”; in [6], “Compound metabolized”. Besides, the “Bacterial Biotransformation” value is recorded as “Compound metabolized” in [7]; “Compound NOT metabolized” in data set [8]; “Compound NOT metabolized” in [9]; “Compound metabolized” in [10]; “Compound NOT metabolized” in [11]; “Compound metabolized” in [12]. Moreover, the “Bacterial Biotransformation” value in [13] is given as “Compound NOT metabolized”; in data set [14], “Compound metabolized”; in data set [15], “Compound NOT metabolized”; in data set [16], “Compound NOT metabolized”; in [17], “Compound NOT metabolized”; in [18] it was “Compound NOT metabolized”. Moreover, the “Bacterial Biotransformation” value is recorded as “Compound metabolized” in [19]; “Compound metabolized” in [20]; “Compound NOT metabolized” in data set [21]; “Compound metabolized” in data set [22]; “Compound NOT metabolized” in data set [23].

On to `CN(Cc1cnc2nc(N)nc(N)c2n1)c1ccc(C(=O)N[C@@H](CCC(=O)O)C(=O)O)cc1` [METHOTREXATE], for which the “Bacterial Biotransformation” value is “Compound NOT metabolized” in [1]; “Compound NOT metabolized” in [2]; “Compound NOT metabolized” in [3]; “Compound NOT metabolized” in data set [4]; “Compound NOT metabolized” in data set [5]; “Compound metabolized” in data set [6]. Moreover, the “Bacterial Biotransformation” value is reported as “Compound NOT metabolized” in data set [7]; “Compound NOT metabolized” in data set [8]; “Compound metabolized” in [9]; “Compound metabolized” in [10]; “Compound NOT metabolized” in data set [11]; “Compound metabolized” in [12]. Further, the “Bacterial Biotransformation” value was “Compound NOT metabolized” in data set [13]; “Compound NOT metabolized” in [14]; “Compound NOT metabolized” in data set [15]; “Compound metabolized” in data set [16]; “Compound NOT metabolized” in [17]; “Compound NOT metabolized” in data set [18]. Further, the “Bacterial Biotransformation” value in data set [19], in [20], in data set [21], in [22] and in [23] was “Compound NOT metabolized” in each case.

Turning to `C[C@H]1C[C@@H]2[C@H]([C@@H](O)C[C@@]3(C)[C@H]2CC[C@]3(O)C(=O)CO)[C@@]2(C)C=CC(=O)C=C12` [METHYLPREDNISOLONE], the “Bacterial Biotransformation” value in [1] is “Compound metabolized”; in data set [2], “Compound NOT metabolized”; in [3], “Compound NOT metabolized”; in [4], “Compound metabolized”; in data set [5], “Compound NOT metabolized”; in data set [6], “Compound metabolized”. The “Bacterial Biotransformation” value is “Compound metabolized” in data set [7]; “Compound NOT metabolized” in data set [8]; “Compound NOT metabolized” in data set [9]; “Compound metabolized” in data set [10]; “Compound NOT metabolized” in [11]; “Compound metabolized” in data set [12]. Moreover, the “Bacterial Biotransformation” value in [13], in data set [14], in data set [15], in data set [16], in data set [17] and in data set [18] was “Compound NOT metabolized” each time. Besides, the “Bacterial Biotransformation” value in data set [19] is “Compound NOT metabolized”; in [20], “Compound metabolized”; in data set [21], “Compound NOT metabolized”; in data set [22], “Compound NOT metabolized”; in data set [23], “Compound NOT metabolized”.

Source of the values: ChEMBL document CHEMBL5724806, “Unraveling interindividual differences and functional consequences of gut microbial metabolism of immunosuppressants” (2024).
